Assay results published in patent publication EP0901466B1, “BIPHENYLSULFONAMIDE MATRIX METALLOPROTEINASE INHIBITORS” (WARNER-LAMBERT COMPANY, priority 1996, dated 1997).

Each molecule was assayed against stromelysin catalytic domain (Homo sapiens, UniProt P08254) (assay: stromelysin catalytic domain hydrolysis of thiopeptolide (SCD (T))). Settings: not given.
Assay type: biochemical

stromelysin catalytic domain, sequence (P08254 100-272 limits assumed): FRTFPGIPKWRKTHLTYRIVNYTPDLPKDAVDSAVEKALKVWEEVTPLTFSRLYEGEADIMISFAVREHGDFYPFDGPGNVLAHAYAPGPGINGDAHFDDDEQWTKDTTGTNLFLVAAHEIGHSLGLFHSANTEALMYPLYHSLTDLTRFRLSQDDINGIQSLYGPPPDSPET

Row | IC50 [nM] | SMILES
1 | 100 | CC(C)[C@H](NS(=O)(=O)c1ccc(-c2ccc(Cl)cc2)cc1)C(=O)O [Example 2, (S)-2-(4'-Chloro-biphenyl-4-sulfonylamino)-3-methyl-butyric acid]
2 | 9 | CC(C)[C@H](NS(=O)(=O)c1ccc(-c2ccc(C#N)cc2)cc1)C(=O)O [Example 5, (S)-2-(4'-Cyano-biphenyl-4-sulfonylamino)-3-methyl-butyric acid]
3 | 8 | COc1ccc(-c2ccc(S(=O)(=O)N[C@H](C(=O)O)C(C)C)cc2)cc1 [Example 15, (S)-2-(4'-Methoxy-biphenyl-4-sulfonylamino)-3-methyl-butyric acid]

Same assay, conditions: thiopeptolide substrate; read-out: SCD (T) (IC50)

Row | SMILES | IC50 [nM]
4 | CC(C)[C@H](NS(=O)(=O)c1ccc(-c2ccc(N)cc2)cc1)C(=O)O [Example 4, (S)-2-(4'-Amino-biphenyl-4-sulfonylamino)-3-methyl-butyric acid] | 67
5 | CC(C)[C@H](NS(=O)(=O)c1ccc(-c2cccc(Br)c2)cc1)C(=O)O [Example 7, (S)-2-(3'-Bromo-biphenyl-4-sulfonylamino)-3-methyl-butyric acid] | 347
6 | CC(C)[C@H](NS(=O)(=O)c1ccc(-c2ccc(Br)cc2F)cc1)C(=O)O [Example 8, (S)-2-(4'-Bromo-2'-fluoro-biphenyl-4-sulfonylamino)-3-methyl-butyric acid] | 30
7 | O=C(O)[C@H](Cc1ccccc1)NS(=O)(=O)c1ccc(-c2ccc(Br)cc2)cc1 [Example 10, (S)-2-(4'-Bromo-biphenyl-4-sulfonylamino)-3-phenyl-propionic acid] | 26
8 | O=C(O)CNS(=O)(=O)c1ccc(-c2ccc(Br)cc2)cc1 [Example 12, (4'-Bromo-biphenyl-4-sulfonylamino)-acetic acid] | 60
9 | C[C@H](NS(=O)(=O)c1ccc(-c2ccc(Br)cc2)cc1)C(=O)O [Example 13, (S)-2-(4'-Bromo-biphenyl-4-sulfonylamino)-propionic acid] | 28
10 | CC(C)C[C@H](NS(=O)(=O)c1ccc(-c2ccc(Br)cc2)cc1)C(=O)O [Example 14, (S)-2-(4'-Bromo-biphenyl-4-sulfonylamino)-4-methyl-pentanoic acid] | 13
11 | CC(C)[C@H](NS(=O)(=O)c1ccc(-c2cccc(F)c2)cc1)C(=O)O [Example 17, (S)-2-(3'-Fluoro-biphenyl-4-sulfonylamino)-3-methyl-butyric acid] | 27

The remaining lines, values ahead:

Row | IC50 [nM] | SMILES
12 | 31 | CC(C)[C@H](NS(=O)(=O)c1ccc(-c2ccc([N+](=O)[O-])cc2)cc1)C(=O)O [Example 3, (S)-3-Methyl-2-(4'-nitro-biphenyl-4-sulfonylamino)-butyric acid]
13 | 14 | CC(C)[C@H](NS(=O)(=O)c1ccc(-c2ccc(F)cc2)cc1)C(=O)O [Example 16, (S)-2-(4'-Fluoro-biphenyl-4-sulfonylamino)-3-methyl-butyric acid]
14 | 12 | Cc1ccc(-c2ccc(S(=O)(=O)N[C@H](C(=O)O)C(C)C)cc2)cc1 [Example 18, (S)-3-Methyl-2-(4'-methyl-biphenyl-4-sulfonylamino)-butyric acid]

The molecules below were run against T1, full-length collagenase (Homo sapiens, UniProt P03956) (assay: full-length collagenase hydrolysis of thiopeptolide substrate (FLC)). Settings: not given.
T1 sequence (P03956 100-469): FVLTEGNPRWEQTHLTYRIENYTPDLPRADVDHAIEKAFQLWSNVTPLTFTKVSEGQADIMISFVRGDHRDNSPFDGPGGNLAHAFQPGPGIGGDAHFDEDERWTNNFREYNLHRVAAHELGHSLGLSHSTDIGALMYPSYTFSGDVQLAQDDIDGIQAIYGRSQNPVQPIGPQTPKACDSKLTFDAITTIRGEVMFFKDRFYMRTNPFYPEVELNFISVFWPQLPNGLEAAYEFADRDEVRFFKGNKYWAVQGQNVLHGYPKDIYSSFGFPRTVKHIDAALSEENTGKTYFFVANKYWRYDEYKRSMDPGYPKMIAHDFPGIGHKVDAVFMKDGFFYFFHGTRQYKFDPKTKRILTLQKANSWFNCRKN
Assay type: biochemical
Description: (§1) The compounds were additionally evaluated for their ability to inhibit full-length collagenase hydrolysis of thiopeptolide substrate (FLC) and full-length gelatinase B (FLGB) hydrolysis of thiopeptolide.

Row | IC50 [nM] | SMILES
15 | 7500 | CC(C)[C@H](NS(=O)(=O)c1ccc(-c2ccc(Cl)cc2)cc1)C(=O)O [Example 2, (S)-2-(4'-Chloro-biphenyl-4-sulfonylamino)-3-methyl-butyric acid]

These molecules were tested against T2, full-length gelatinase B (Homo sapiens, UniProt P14780) (assay: full-length gelatinase B hydrolysis of thiopeptolide (FLGB)). Settings: thiopeptolide substrate.
T2 construct: full-length gelatinase B (FLGB) hydrolysis of thiopeptolide
Assay type: biochemical
Description: as §1

T2 sequence (P14780 94-707, species assumed): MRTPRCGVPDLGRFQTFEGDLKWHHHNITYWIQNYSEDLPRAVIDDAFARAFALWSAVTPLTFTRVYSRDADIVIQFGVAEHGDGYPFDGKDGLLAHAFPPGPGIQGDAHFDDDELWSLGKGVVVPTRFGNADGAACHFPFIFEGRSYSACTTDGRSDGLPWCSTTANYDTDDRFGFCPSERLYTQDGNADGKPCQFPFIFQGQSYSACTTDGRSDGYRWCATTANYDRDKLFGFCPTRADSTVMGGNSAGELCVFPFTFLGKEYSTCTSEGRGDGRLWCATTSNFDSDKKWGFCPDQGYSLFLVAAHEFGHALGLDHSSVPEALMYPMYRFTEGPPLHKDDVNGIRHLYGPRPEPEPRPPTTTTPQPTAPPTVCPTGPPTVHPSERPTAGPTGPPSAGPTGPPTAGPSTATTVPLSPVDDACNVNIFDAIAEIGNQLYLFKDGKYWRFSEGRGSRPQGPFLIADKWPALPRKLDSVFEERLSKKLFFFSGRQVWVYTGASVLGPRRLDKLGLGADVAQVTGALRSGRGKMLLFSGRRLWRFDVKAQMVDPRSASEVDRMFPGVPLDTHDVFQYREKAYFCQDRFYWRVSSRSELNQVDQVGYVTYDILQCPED

Row | IC50 [nM] | SMILES
16 | 8340 | CC(C)[C@H](NS(=O)(=O)c1ccc(-c2ccc(Br)cc2)cc1)C(=O)O [Example 1, (S)-2-(4'-Bromo-biphenyl-4-sulfonylamino)-3-methyl-butyric acid]
17 | 23000 | CC(C)[C@H](NS(=O)(=O)c1ccc(-c2ccc(Cl)cc2)cc1)C(=O)O [Example 2, (S)-2-(4'-Chloro-biphenyl-4-sulfonylamino)-3-methyl-butyric acid]
